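Five compound concentrations were applied to cells in 96-well plates for 48 hours; endpoints were derived by simple linear interpolation of the resulting dose-response curve. At the GI50, growth is halved. TGI denotes the concentration required for complete inhibition of growth.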
Tests used:
Test in all cases: growth of human tumour cells (NCI), 48 h
[1] = test system: NCI/ADR-RES ovarian
[2] = test system: HL-60(TB) leukemia
[3] = test system: MALME-3M melanoma
[4] = test system: LOX IMVI melanoma
[5] = test system: MDA-MB-231 breast
[6] = test system: OVCAR-5 ovarian
[7] = test system: 786-0 renal
[8] = test system: CCRF-CEM leukemia
[9] = test system: HCC-2998 colon
[10] = test system: HCT-116 colon
[11] = test system: SR leukemia
[12] = test system: T-47D breast
[13] = test system: A549 NSCLC
[14] = test system: UACC-257 melanoma
[15] = test system: RPMI-8226 leukemia
[16] = test system: PC-3 prostate
[17] = test system: MCF7 breast
[18] = test system: A498 renal
[19] = test system: SNB-19 CNS
[20] = test system: HS 578T breast
[21] = test system: SW-620 colon
[22] = test system: OVCAR-3 ovarian
[23] = test system: NCI-H226 lung
[24] = test system: SK-MEL-28 melanoma
[25] = test system: EKVX NSCLC
[26] = test system: M14 melanoma
[27] = test system: NCI-H522 lung
[28] = test system: IGROV1 ovarian
[29] = test system: COLO 205 colon
[30] = test system: OVCAR-4 ovarian
[31] = test system: NCI-H23 lung
[32] = test system: ACHN renal
[33] = test system: OVCAR-8 ovarian
[34] = test system: NCI-H460 lung
[35] = test system: SK-MEL-2 melanoma
[36] = test system: SF-539 CNS
[37] = test system: TK-10 renal
[38] = test system: SK-MEL-5 melanoma
[39] = test system: HT29 colon
[40] = test system: HOP-92 NSCLC
[41] = test system: UACC-62 melanoma
[42] = test system: UO-31 renal
[43] = test system: U251 CNS
[44] = test system: SF-268 CNS
[45] = test system: K-562 leukemia
[46] = test system: SK-OV-3 ovarian
[47] = test system: SNB-75 CNS
[48] = test system: MOLT-4 leukemia
[49] = test system: MDA-MB-435
[50] = test system: HOP-62 NSCLC
[51] = test system: KM12 colon
[52] = test system: HCT-15 colon
[53] = test system: DU-145 prostate
[54] = test system: BT-549 breast
[55] = test system: SF-295 CNS
[56] = test system: CAKI-1 renal
[57] = test system: SN12C renal

## N#Cc1cnc2ccc(-c3cnc4n[nH]nc4c3)cc2c1N1CCc2cc(F)c(Cl)cc21
[1]
  GI50: 12.8 µM
  TGI: 53.3 µM
[2]
  GI50: 11.5 µM
  TGI: 43.6 µM
[3]
  GI50: 2.91 µM
  TGI: 16.4 µM
[4]
  GI50: 1.76 µM
  TGI: 11.4 µM
[5]
  GI50: 3.64 µM
  TGI: 23.3 µM
[6]
  GI50: 4.07 µM
  TGI: 65.1 µM
[7]
  GI50: 3.55 µM
  TGI: > 100 µM
[8]
  GI50: 3.69 µM
  TGI: 21.1 µM
[9]
  GI50: 2.85 µM
  TGI: 14.9 µM
[10]
  GI50: 6.44 µM
  TGI: 25.3 µM
[11]
  GI50: 2.3 µM
  TGI: 25.8 µM
[12]
  GI50: 1.68 µM
  TGI: 8 µM
[13]
  GI50: 3.92 µM
  TGI: 72.6 µM
[14]
  GI50: 5.03 µM
  TGI: 44.2 µM
[15]
  GI50: 3.02 µM
  TGI: 42.5 µM
[16]
  GI50: 3.11 µM
  TGI: 25.5 µM
[17]
  GI50: 1.92 µM
  TGI: 14 µM
[18]
  GI50: 1.87 µM
  TGI: 6.69 µM
[19]
  GI50: 3.9 µM
  TGI: 77.9 µM
[20]
  GI50: 1.18 µM
  TGI: 5.26 µM
[21]
  GI50: 5.2 µM
  TGI: 24.6 µM
[22]
  GI50: 2.97 µM
  TGI: 24 µM
[23]
  GI50: 2.2 µM
  TGI: 20 µM
[24]
  GI50: 3.68 µM
  TGI: 33.6 µM
[25]
  GI50: 3.26 µM
  TGI: 18.5 µM
[26]
  GI50: 5.15 µM
  TGI: 38.2 µM
[27]
  GI50: 2.82 µM
  TGI: 16.7 µM
[28]
  GI50: 1.42 µM
  TGI: 6.19 µM
[29]
  GI50: 9.19 µM
  TGI: 34.3 µM
[30]
  GI50: 2.66 µM
  TGI: 22.3 µM
[31]
  GI50: 3.16 µM
  TGI: 16.1 µM
[32]
  GI50: 3.62 µM
  TGI: 15.3 µM
[33]
  GI50: 4.62 µM
  TGI: > 100 µM
[34]
  GI50: 3.48 µM
  TGI: 17.4 µM
[35]
  GI50: 2.74 µM
  TGI: 12.7 µM
[36]
  GI50: 3.17 µM
  TGI: 18.9 µM
[37]
  GI50: 3.23 µM
  TGI: 28.6 µM
[38]
  GI50: 2.83 µM
  TGI: 8.47 µM
[39]
  GI50: 5.73 µM
  TGI: 35 µM
[40]
  GI50: 1.83 µM
  TGI: 7.97 µM
[41]
  GI50: 2.63 µM
  TGI: 12.6 µM
[42]
  GI50: 1.13 µM
  TGI: 11.1 µM
[43]
  GI50: 4.66 µM
  TGI: 86.6 µM
[44]
  GI50: 3.22 µM
  TGI: 84.6 µM
[45]
  GI50: 4.67 µM
  TGI: > 100 µM
[46]
  GI50: 3.52 µM
  TGI: 19.2 µM
[47]
  GI50: 0.395 µM
  TGI: 5.52 µM
[48]
  GI50: 2.8 µM
  TGI: 11.4 µM
[49]
  GI50: 3.73 µM
  TGI: 28.6 µM
[50]
  GI50: 3.45 µM
  TGI: 38.7 µM
[51]
  GI50: 4.66 µM
  TGI: 32.3 µM
[52]
  GI50: 2.71 µM
  TGI: 14 µM
[53]
  GI50: 4.25 µM
  TGI: 66 µM
[54]
  GI50: 2.31 µM
  TGI: 14.6 µM
[55]
  GI50: 2.54 µM
  TGI: 13.3 µM
[56]
  GI50: 2.99 µM
  TGI: 25.2 µM
[57]
  GI50: 3.27 µM
  TGI: 41.7 µM
